“Also recorded” adds a separate entry of the source.
Key:
Glutamate, NMDA, Agonism = experiment: Eurofins radioligand binding; parameters: species or system Rat; settings: specific binding
Serotonin (5-HT2B) = experiment: Eurofins radioligand binding; parameters: species or system Human; settings: specific binding
Purinergic P2X = experiment: Eurofins radioligand binding; parameters: species or system Rat; settings: specific binding
Calcium Channel N-Type = experiment: Eurofins radioligand binding; parameters: species or system Rat; settings: specific binding
Potassium Channel [KATP] = experiment: Eurofins radioligand binding; parameters: species or system Hamster; settings: specific binding
Dopamine D3 = experiment: Eurofins radioligand binding; parameters: species or system Human; settings: specific binding
[1] = system: Transporter, Dopamine (DAT); experiment: Eurofins radioligand binding; parameters: species or system Human; settings: specific binding
Opiate κ (OP2, KOP) = experiment: Eurofins radioligand binding; parameters: species or system Human; settings: specific binding
Histamine H2 = experiment: Eurofins radioligand binding; parameters: species or system Human; settings: specific binding
[2] = system: layer V medial prefrontal cortex (mPFC); experiment: Field electrophysiology, layer V medial prefrontal cortex slices; parameters: species or system mouse; settings: 3 μM bath application 20 min; recorded layer V, stimulation layer II/III
Experimental: PAMs 11 and 12 were next evaluated in our rat IV plasma: brain level cassette paradigm (0.25 mg/kg compound, 1 mg/kg total dose, 10.1% EtOH:40.4% PEG400:49.5% DMSO) sampled at a set 15 min time point to assess CNS penetration. […] As mice are the most sensitive species to cholinergic mechanisms,[11],[13],[23],[24] we placed a high-throughput phenotypic seizure liability assay into the work-flow in which potent ago-PAMs, such as 2–5,[8]−[15] display robust Racine scale 4/5 behavioral convulsions that develop within minutes of dosing and last for the 3 h duration of the study. […] In parallel, we performed electrophysiology studies in mouse native tissue layer V medial prefrontal cortex (mPFC). […]
Rats were habituated for 10 min for 2 consecutive days in an empty novel object recognition (NOR) arena consisting of dark-colored plexiglass box (40 × 64 × 33 cm3). […] The rats were then returned to the arena in which one of the previously exposed (familiar) objects was replaced by a novel object and were video recorded for 5 min while they explored the two objects. Time spent exploring each object was scored by an observer blinded to the experimental conditions and the recognition index was calculated as [(time spent exploring novel object) – (time spent exploring familiar object)]/total time exploring objects. […]

rCYP2J2 = experiment: Substrate depletion with recombinant human CYPs, rCYP2J2; type: in vitro ADME
Source text: (§1) To advance 11 as a candidate and into IND-enabling studies, we next needed to better understand its CYP profile to minimize drug–drug interactions in the clinic. […] We were pleased to see the contribution of another CYP beyond 3A4 for the metabolism of 11.[21] In parallel, we investigated the ability of PAM 11 to induce the expression of CYP450s (measuring mRNA) in cryopreserved human hepatocytes from three separate donors.

Adenosine A1 = experiment: Eurofins radioligand binding; parameters: species or system Human; settings: specific binding
Thyroid Hormone = experiment: Eurofins radioligand binding; parameters: species or system Rat; settings: specific binding
Endothelin ETA = experiment: Eurofins radioligand binding; parameters: species or system Human; settings: specific binding
Adrenergic α1B = experiment: Eurofins radioligand binding; parameters: species or system Human; settings: specific binding
rCYP3A4 = experiment: Substrate depletion with recombinant human CYPs, rCYP3A4; type: in vitro ADME
Source text: as §1

Potassium Channel hERG = experiment: Eurofins radioligand binding; settings: human, specific binding
Hepatocyte MET ID, human = type: in vitro ADME; settings: 4-h incubation
Source text: More concerning were the results generated via outsourced multispecies hepatocyte MET ID, which were drastically different than the liver S9MET ID. The extent of metabolism for VU6007496 with rat, dog, monkey and human hepatocytes was 64.7, 51.5, 63.9 and 99.5%, respectively (Figure 8). […] In human hepatocytes, PAM 11 was metabolized primarily to Metabolite A (24), the result of oxidative N-demethylation of the southern pyrazole. The other minor metabolites were oxidation on the tetrahydropyran moiety and included ring opening (Metabolite F, 25).[21]

Tachykinin NK1 = experiment: Eurofins radioligand binding; parameters: species or system Human; settings: specific binding
Adrenergic β2 = experiment: Eurofins radioligand binding; parameters: species or system Human; settings: specific binding
Muscarinic M2 = experiment: Eurofins radioligand binding; parameters: species or system Human; settings: specific binding
Neuropeptide Y Y1 = experiment: Eurofins radioligand binding; parameters: species or system Human; settings: specific binding
Prostanoid EP4 = experiment: Eurofins radioligand binding; parameters: species or system Human; settings: specific binding
GABAB1A = experiment: Eurofins radioligand binding; parameters: species or system Human; settings: specific binding

Q: What does the source list for `Cn1ccc(-c2ccc(Cc3cc(C(=O)NC4CCOCC4)nc4ccn(C)c34)cc2)n1` [compound 11]?
A: % Inhibition at 10 µM (Glutamate, NMDA, Agonism): 0%; % Inhibition at 10 µM (Serotonin (5-HT2B)): 7%; % Inhibition at 10 µM (Purinergic P2X): 17%; % Inhibition at 10 µM (Calcium Channel N-Type): 8%; % Inhibition at 10 µM (Potassium Channel [KATP]): 11%; % Inhibition at 10 µM (Dopamine D3): 8%; % Inhibition at 10 µM [1]: 13%; % Inhibition at 10 µM (Opiate κ (OP2, KOP)): 32%; % Inhibition at 10 µM (Histamine H2): 28%; change in fEPSP slope (long-term depression) [2]: did not induce significant changes; also recorded: no significant change in fEPSP slope; share of hepatic CYP-mediated clearance, rCYP2J2 (rCYP2J2): 2.4%; % Inhibition at 10 µM (Adenosine A1): 10%; % Inhibition at 10 µM (Thyroid Hormone): 2%; % Inhibition at 10 µM (Endothelin ETA): 3%; % Inhibition at 10 µM (Adrenergic α1B): 14%; share of hepatic CYP-mediated clearance, rCYP3A4 (rCYP3A4): 97.6%; inhibition at 10 µM (Potassium Channel hERG): 11%; extent of metabolism, human hepatocytes (Hepatocyte MET ID, human): 99.5%; % Inhibition at 10 µM (Tachykinin NK1): 8%; % Inhibition at 10 µM (Adrenergic β2): 7%; % Inhibition at 10 µM (Muscarinic M2): 0%; % Inhibition at 10 µM (Neuropeptide Y Y1): -10%; % Inhibition at 10 µM (Prostanoid EP4): 16%; % Inhibition at 10 µM (GABAB1A): 4%

Reference: PMC11413853, “Discovery of VU6007496: Challenges in the Development of an M1 Positive Allosteric Modulator Backup Candidate” (ACS Chemical Neuroscience, 2024)
